In article PMC6151491, “In Vitro Evaluation of Third Generation PAMAM Dendrimer Conjugates” (Molecules : A Journal of Synthetic Chemistry and Natural …, 2017):

Test system: Caco-2 cells
Test: Lactate dehydrogenase leakage (LDH) assay
Type: cell-based, Human
Conditions: 3 h incubation, mean ± S.D., n = 4, read-out: IC50 (viability of Caco-2 cells, LDH assay)
Procedure: Human intestinal adenocarcinoma cells (Caco-2) (passage 110–120) were seeded at 10,000 cells/well in 96-well plates and maintained at 37 °C in an atmosphere of 5% CO2 and 95% relative humidity in Dulbecco’s Modified Eagle’s Medium (DMEM) supplemented with 1% foetal bovine serum, 1% non-essential amino acids, 50 IU/mL penicillin. and […] streptomycin. After 24 h the medium was removed and the cells were washed in phosphate buffered saline and 200 µL Hanks Balanced Salt Solution (HBSS) containing G3 PAMAM dendrimer, conjugates or G0 PAMAM dendrimer at different concentrations (concentrations were calculated using the average molecular weight (Table 1) for each conjugate as a whole macromolecule). Caco-2 cell monolayers were also treated with blank HBSS and 1% Triton X-100 as low and high controls, respectively. After 3 h of incubation at 37 °C, 100 µL/well supernatant was removed carefully and transferred into corresponding wells of an optically clear 96-well flat bottom microplate. LDH leakage in the compartment was quantified using an LDH assay kit.
The percentage was calculated using the following equation:Cytotoxicity (%) = ((exp. − low control)/(high control − low control)) × 100 where exp. is the experimental value.

lauroyl-G0-diethylene glycol-naproxen [L-G0-deg-NAP]
IC50: 3.18 ± 0.455 mM
